Results as given in patent publication US20260226071A1, “2, 4-DIANILINOPYRIMIDINE-BASED AURORA-A KINASE SELECTIVE DEGRADATION INDUCING COMPOUNDS” (UPPTHERA, INC., priority 2023, published 2026).

Target: T1, Aurora kinase A (AURKA) (Homo sapiens, UniProt O14965)
T1 construct: endogenous in cells; host or cells: HeLa LgBit (AURKA-HiBit KI), CRISPR/Cas9 knock-in at the endogenous AURKA locus
T1 sequence (O14965 1-403): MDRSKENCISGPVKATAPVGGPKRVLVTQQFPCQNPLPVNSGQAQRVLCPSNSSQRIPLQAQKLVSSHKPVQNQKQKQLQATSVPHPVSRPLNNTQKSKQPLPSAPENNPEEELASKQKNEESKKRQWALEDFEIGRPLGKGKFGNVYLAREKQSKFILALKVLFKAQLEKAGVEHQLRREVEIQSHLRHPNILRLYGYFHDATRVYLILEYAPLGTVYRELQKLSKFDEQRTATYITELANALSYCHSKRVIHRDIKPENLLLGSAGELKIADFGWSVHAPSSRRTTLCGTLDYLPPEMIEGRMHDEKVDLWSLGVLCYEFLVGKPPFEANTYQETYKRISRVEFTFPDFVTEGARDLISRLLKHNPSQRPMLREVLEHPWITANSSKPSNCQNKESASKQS
Assay: Luciferase assay for AURKA in HeLa LgBit (AURKA-HiBit KI) cell line
Format: cell-based
Settings: HeLa LgBit (AURKA-HiBit KI) cells, measured after 12 hours
Description: HeLa cell lines that stably express LgBit were constructed via LgBit vector transfection. Then, donor DNA and guide RNA for insertion of HiBit amino acid sequence at C-terminus of inherent Aurora kinase A (AURKA) genes were designed and constructed. Thereafter, they were transfected into the cell lines with CRISPR/Cas9 expression vector system. HiBit gene knock-in single cells were selected, passaged and used for the experiments.
For cell culture, DMEM (Gibco, Cat. No. 11995-065; Lot. No. 2562497), FBS (Gibco, Cat. No. 16000-044; Lot. No. 2511328P), Penicillin/Streptomycin (PS) (Gibco, Cat. No. 15140-122; Lot. No. 2585636), 90 mm^2 cell culture dish (SPL, Cat. No. 20100), 96-well white plate, PBS pH 7.4 (Gibco, […]), TrypLE™ Express (Gibco, Cat. No. 12605-010; Lot. No. 2522525), counting chamber (hematocytometer) (Hirschmann, Cat. No. 8100204; Lot. No. 8021087) and 0.4% Trypan Blue solution (DYNEBIO, Cat. No. CBT3710; Lot. No. 20231017) were used. Cells were cultured in DMEM supplemented with 10% FBS and 1% PS and incubated in CO2 incubator (Thermo, Cat. No. 4111) at 37° C., 5% CO2 condition.
HeLa LgBit (AURKA-HiBit KI) cell lines were cultured in 90 mm^2 cell culture dish, and 3×10^4 cells in […] of total medium volume were seeded and incubated for 18 hours in CO2 incubator. Then, Eudurazine (Promega, Cat. No. N247B; Lot. No. 495218) was added to each well to make up 1% of the total volume, followed by further incubation for 2 hours in CO2 incubator.
The present compounds were fully dissolved in DMSO (Sigma-Aldrich Cat. No. D2438, Lot. No. RNBL7287) and 10 nM or 100 nM of total concentration were used in the experiment. After adding the compounds in each well of 96-well white plate, the plate was placed in the plate reader (BMG Labtech, CLARIOstar Plus) for real-time analysis. The wavelength for analysis was set to […], and the luminescence value was measured after 12 hours. The luminescence value was analyzed through an Excel program.

In the case of `Cc1cc(Nc2nc(Nc3ccc(C(=O)NN4CCC(CCN5CCN(c6ccc(C7CCC(=O)NC7=O)cc6)CC5)CC4)cc3)ncc2F)n[nH]1` (stereo not shown) [Compound 59, N-(4-(2-(4-(4-(2,6-dioxopiperidin-3-yl)phenyl)piperazin-1-yl)ethyl)piperidin-1-yl)-4-((5-fluoro-4-((5-methyl-1H-pyrazol-3-yl)amino)pyrimidin-2-yl)amino)benzamide], the “luminescence value (Level)” value (10 nM compound) is reported as “C (C is 0.5 to 0.7)” and the “luminescence value (Level)” value (100 nM compound) is reported as “A (A is <0.2)”.
For `O=C1CC[C@H](NC(=O)c2ccc(N3CCN(CCC4CCN(NC(=O)c5ccc(Nc6ncc(F)c(Nc7ccc(C(=O)Nc8ccccc8Cl)cc7)n6)cc5)CC4)CC3)cn2)C(=O)N1` [Compound 87, (S)-5-(4-(2-(1-(4-((4-((4-((2-chlorophenyl)carbamoyl)phenyl)amino)-5-fluoropyrimidin-2-yl)amino)benzamido)piperidin-4-yl)ethyl)piperazin-1-yl)-N-(2,6-dioxopiperidin-3-yl)picolinamide], the “luminescence value (Level)” value (10 nM compound) was “B (B is 0.3 to 0.5)” and the “luminescence value (Level)” value (100 nM compound) was “B (B is 0.2 to 0.4)”.
In the case of `CN(C(=O)c1ccc(Nc2nc(Nc3ccc(C(=O)NN4CCC(CCN5CCN(c6ccc(C7CCC(=O)NC7=O)cc6)CC5)CC4)cc3)ncc2F)cc1)c1ccccc1Cl` (stereo not shown) [Compound 102, 4-[[4-[4-[(2-chlorophenyl)-methyl-carbamoyl]anilino]-5-fluoro-pyrimidin-2-yl]amino]-N-[4-[2-[4-[4-(2,6-dioxo-3-piperidyl)phenyl]piperazin-1-yl]ethyl]-1-piperidyl]benzamide], the “luminescence value (Level)” value (10 nM compound) is reported as “B (B is 0.3 to 0.5)” and the “luminescence value (Level)” value (100 nM compound) is reported as “A (A is <0.2)”.
In the case of `O=C1CCC(c2ccc(N3CCC(CCN4CCC(NC(=O)c5ccc(Nc6ncc(F)c(Nc7ccc(C(=O)Nc8ccccc8Cl)cc7)n6)cc5)CC4)CC3)cc2)C(=O)N1` (stereo not shown) [Compound 19, N-(2-chlorophenyl)-4-((2-((4-((1-(2-(1-(4-(2,6-dioxopiperidin-3-yl)phenyl)piperidin-4-yl)ethyl)piperidin-4-yl)carbamoyl)phenyl)amino)-5-fluoropyrimidin-4-yl)amino) benzamide], the “luminescence value (Level)” value (10 nM compound) is reported as “C (C is 0.5 to 0.7)” and the “luminescence value (Level)” value (100 nM compound) is reported as “B (B is 0.2 to 0.4)”.
`O=C1CCC(Nc2ccc(N3CC4(CN(CC5CCN(C(=O)c6ccc(Nc7ncc(F)c(Nc8ccc(C(=O)Nc9ccccc9Cl)cc8)n7)cc6)CC5)C4)C3)cc2)C(=O)N1` (stereo not shown) [Compound 42, N-(2-chlorophenyl)-4-((2-((4-(4-((6-(4-((2,6-dioxopiperidin-3-yl)amino)phenyl)-2,6-diazaspiro[3.3]heptan-2-yl)methyl)piperidine-1-carbonyl)phenyl)amino)-5-fluoropyrimidin-4-yl)amino)benzamide] was tested, and the “luminescence value (Level)” value (10 nM compound) was “B (B is 0.3 to 0.5)” and the “luminescence value (Level)” value (100 nM compound) was “A (A is <0.2)”.
In the case of `O=C1CCC(Nc2ccc(N3CCCN(C[C@H]4CC[C@H](NC(=O)c5ccc(Nc6ncc(F)c(Nc7ccc(C(=O)Nc8ccccc8Cl)cc7)n6)cc5)CC4)CC3)cc2)C(=O)N1` (stereo partly shown) [Compound 39, N-(2-chlorophenyl)-4-((2-((4-(((1r,4r)-4-((4-(4-((2,6-dioxopiperidin-3-yl)amino)phenyl)-1,4-diazepan-1-yl)methyl)cyclohexyl)carbamoyl)phenyl)amino)-5-fluoropyrimidin-4-yl)amino)benzamide], the “luminescence value (Level)” value (10 nM compound) is reported as “B (B is 0.3 to 0.5)” and the “luminescence value (Level)” value (100 nM compound) is reported as “A (A is <0.2)”.
`O=C1CCC(c2ccc(N3CCN(CCC4CCN(NC(=O)c5ccc(Nc6ncc(F)c(Nc7ccc(C(=O)Nc8ccccc8Cl)cc7)n6)cc5F)CC4)CC3)cc2)C(=O)N1` (stereo not shown) [Compound 105, 4-[[4-[4-[(2-chlorophenyl)carbamoyl]anilino]-5-fluoro-pyrimidin-2-yl]amino]-N-[4-[2-[4-[4-(2,6-dioxo-3-piperidyl)phenyl]piperazin-1-yl]ethyl]-1-piperidyl]-2-fluoro-benzamide] was tested, and the “luminescence value (Level)” value (10 nM compound) was “B (B is 0.3 to 0.5)” and the “luminescence value (Level)” value (100 nM compound) was “A (A is <0.2)”.
For `O=C1CCC(Nc2cccc(N3CCC(CN4CCN(C(=O)Cc5ccc(Nc6ncc(F)c(Nc7ccc(C(=O)Nc8ccccc8Cl)cc7)n6)cc5)CC4)CC3)c2)C(=O)N1` (stereo not shown) [Compound 25, N-(2-chlorophenyl)-4-((2-((4-(2-(4-((1-(3-((2,6-dioxopiperidin-3-yl)amino)phenyl)piperidin-4-yl)methyl)piperazin-1-yl)-2-oxoethyl)phenyl)amino)-5-fluoropyrimidin-4-yl)amino)benzamide], the “luminescence value (Level)” value (10 nM compound) was “C (C is 0.5 to 0.7)” and the “luminescence value (Level)” value (100 nM compound) was “B (B is 0.2 to 0.4)”.
With `O=C1CCC(c2ccc(N3CCN(CCC4CCN(NC(=O)c5ccc(Nc6ncc(F)c(Nc7cc(C8CC8)[nH]n7)n6)cc5)CC4)CC3)cc2)C(=O)N1` (stereo not shown) [Compound 61, 4-((4-((5-cyclopropyl-1H-pyrazol-3-yl)amino)-5-fluoropyrimidin-2-yl)amino)-N-(4-(2-(4-(4-(2,6-dioxopiperidin-3-yl)phenyl)piperazin-1-yl)ethyl)piperidin-1-yl)benzamide] the “luminescence value (Level)” value (10 nM compound) was “C (C is 0.5 to 0.7)” and the “luminescence value (Level)” value (100 nM compound) was “A (A is <0.2)”.
`O=C1CCC(Nc2ccc(N3CCC(CN4CC5(C4)CN(C(=O)c4ccc(Nc6ncc(F)c(Nc7ccc(C(=O)Nc8ccccc8Cl)cc7)n6)cc4)C5)CC3)cc2)C(=O)N1` (stereo not shown) [Compound 31, N-(2-chlorophenyl)-4-((2-((4-(6-((1-(4-((2,6-dioxopiperidin-3-yl)amino)phenyl)piperidin-4-yl)methyl)-2,6-diazaspiro[3.3]heptane-2-carbonyl)phenyl)amino)-5-fluoropyrimidin-4-yl)amino)benzamide] was tested, and the “luminescence value (Level)” value (10 nM compound) was “C (C is 0.5 to 0.7)” and the “luminescence value (Level)” value (100 nM compound) was “B (B is 0.2 to 0.4)”.
With `O=C1CCC(c2ccc(C#CC3CCN(C4CCN(C(=O)c5ccc(Nc6ncc(F)c(Nc7ccc(C(=O)Nc8ccccc8Cl)cc7)n6)cc5)CC4)CC3)cn2)C(=O)N1` (stereo not shown) [Compound 20, N-(2-chlorophenyl)-4-((2-((4-(4-((6-(2,6-dioxopiperidin-3-yl)pyridin-3-yl)ethynyl)-[1,4′-bipiperidine]-1′-carbonyl)phenyl)amino)-5-fluoropyrimidin-4-yl)amino)benzamide] the “luminescence value (Level)” value (10 nM compound) was “D (D is 0.7 to 0.8)” and the “luminescence value (Level)” value (100 nM compound) was “C (C is 0.4 to 0.6)”.
`O=C1CCC(Nc2ccc(N3CC4CC(C3)N(CC3CCN(C(=O)c5ccc(Nc6ncc(F)c(Nc7ccc(C(=O)Nc8ccccc8Cl)cc7)n6)cc5)CC3)C4)cc2)C(=O)N1` (stereo not shown) [Compound 29, N-(2-chlorophenyl)-4-((2-((4-(4-((3-(4-((2,6-dioxopiperidin-3-yl)amino)phenyl)-3,6-diazabicyclo[3.2.1]octan-6-yl)methyl)piperidine-1-carbonyl)phenyl)amino)-5-fluoropyrimidin-4-yl)amino)benzamide] was tested, and the “luminescence value (Level)” value (10 nM compound) was “C (C is 0.5 to 0.7)” and the “luminescence value (Level)” value (100 nM compound) was “B (B is 0.2 to 0.4)”.
In the case of `O=C1CCC(c2ccc(N3CCN(CCC4CCN(NC(=O)c5ccc(Nc6ncc(F)c(Nc7ccc(C(=O)Nc8ccccc8Cl)cc7)n6)nc5)CC4)CC3)cc2)C(=O)N1` (stereo not shown) [Compound 91, 6-[[4-[4-[(2-chlorophenyl)carbamoyl]anilino]-5-fluoro-pyrimidin-2-yl]amino]-N-[4-[2-[4-[4-(2,6-dioxo-3-piperidyl)phenyl]piperazin-1-yl]ethyl]-1-piperidyl]pyridine-3-carboxamide], the “luminescence value (Level)” value (10 nM compound) is reported as “D (D is 0.7 to 0.8)” and the “luminescence value (Level)” value (100 nM compound) is reported as “C (C is 0.4 to 0.6)”.
`COc1cc(N2CCN(CCC3CCN(NC(=O)c4ccc(Nc5ncc(F)c(Nc6ccc(C(=O)Nc7ccccc7Cl)cc6)n5)cc4F)CC3)CC2)c(F)cc1C1CCC(=O)NC1=O` (stereo not shown) [Compound 119, 4-((4-((4-((2-chlorophenyl)carbamoyl)phenyl)amino)-5-fluoropyrimidin-2-yl)amino)-N-(4-(2-(4-(4-(2,6-dioxopiperidin-3-yl)-2-fluoro-5-methoxyphenyl)piperazin-1-yl)ethyl)piperidin-1-yl)-2-fluorobenzamide] was tested, and the “luminescence value (Level)” value (10 nM compound) was “C (C is 0.5 to 0.7)” and the “luminescence value (Level)” value (100 nM compound) was “B (B is 0.2 to 0.4)”.
